Measured values taken from US9334276B2, “Forms and salts of a dihydropyrrolo[1,2c]imidazolyl aldosterone synthase or aromatase inhibitor” (Novartis AG, priority 2012, dated 2016).
Where two headings read alike, the source gives them in different places.

Columns and labels:
[1] = Determination of solubility (excess solids equilibrated over 24 hours at 25° C.); assay type: physicochemical; settings: thermodynamic from solid
Description: Excess solids were equilibrated in each solvent for over 24 hours at 25° C.±0.1. Concentration in supernatant was measured by gravimetry for organic solvents and by HPLC from aqueous solvents and propylene glycol.

[2] = Hygroscopicity: sorption/desorption isotherms, VTI 100 humidity microbalance; assay type: physicochemical; settings: for Moisture gain (water uptake): 25° C.
Description: Sorption/desorption isotherms were measured using the VTI 100 humidity microbalance (VTI Corporation, Hialeah, Fla., USA). Measurements were carried out at 25° C. Samples were dried under N2 flow at 25° C.

Compound | solubility ([1]; organic solvent or mixture, Ethyl Acetate, read-out: Solubility profile) [mg/mL] | solubility ([1]; simulated gastric fluid, pH 1, read-out: Solubility profile) [mg/mL] | Moisture gain (water uptake) ([2]; 0% r.h.) [%] | Moisture gain (water uptake) ([2]; 5% r.h.) [%] | Moisture gain (water uptake) ([2]; 25% r.h.) [%] | Moisture gain (water uptake) ([2]; 50% r.h.) [%] | Moisture gain (water uptake) ([2]; 75% r.h.) [%] | Moisture gain (water uptake) ([2]; 85% r.h.) [%] | Moisture gain (water uptake) ([2]; 95% r.h.) [%] | Hygroscopicity (in words) ([2]; in contrast to the phosphate and nitrate salts) | Moisture gain (water uptake) ([2]; 5% r.h., listed as Phosphate) [%] | Moisture gain (water uptake) ([2]; 5% r.h., listed as phosphate salt) [%] | Moisture gain (water uptake) ([2]; 75% r.h., listed as Phosphate) [%] | Moisture gain (water uptake) ([2]; 75% r.h., listed as phosphate salt) [%] | Moisture gain (water uptake) ([2]; 5% r.h., listed as Nitrate) [%]
N#Cc1ccc([C@H]2CCc3cncn32)c(F)c1 [Free base, 4-(R)-(6,7-Dihydro-5H-pyrrolo[1,2-c]imidazol-5-yl)-3-fluoro-benzonitrile] | > 50 | > 50 | 0.0 | 0.0 | 0.1 | 0.2 | 0.3 | 0.5 | 1.0 | – | – | – | – | – | –
Cl.N#Cc1ccc([C@H]2CCc3cncn32)c(F)c1 [HCl salt, HCl salt of 4-(R)-(6,7-dihydro-5H-pyrrolo[1,2-c]imidazol-5-yl)-3-fluoro-benzonitrile, reference compound] | – | – | 0.0 | 0.0 | 0.5 | 0.2 | 0.2 | 3.3 | 23.6 | excessive hygroscopicity | – | – | – | – | –
N#Cc1ccc([C@H]2CCc3cncn32)c(F)c1.O=P(O)(O)O [Phosphate salt, Phosphate salt of 4-(R)-(6,7-dihydro-5H-pyrrolo[1,2-c]imidazol-5-yl)-3-fluoro-benzonitrile (Form A)] | – | – | 0.0 | – | 0.1 | 0.1 | – | 0.3 | 0.8 | – | 0.0 | 0 | 0.2 | 0.9 | –
N#Cc1ccc([C@H]2CCc3cncn32)c(F)c1.O=[N+]([O-])O [nitrate salt, Nitrate salt of 4-(R)-(6,7-dihydro-5H-pyrrolo[1,2-c]imidazol-5-yl)-3-fluoro-benzonitrile] | – | – | 0.0 | 0 | 0.1 | 0.2 | 0.2 | 0.2 | 0.2 | – | – | – | – | – | 0.0
